Where “and” joins values, the source holds several entries; their conditions need not be identical. Equal values may be shown once.
Legend:
Format in all cases: cell-based, human
[1] = test system: HCC1806 cells; assay: [14C]alanine uptake in non-depleted HCC1806 cells; conditions: amino acid replete HCC1806 cells
Protocol: Functional characterisation of plasma membrane transporters in human cancer cells was determined at 37°C using an array of radiolabelled amino acid substrates. Modified Hanks HEPES-buffered salts solution (mHBSS; 137 mM NaCl; 5.4 mM KCl; 2.7 mM K2HPO4; 1 mM CaCl2; 0.5 mM MgCl2; 0.44 mM KH2PO4; 0.4 mM MgSO4; 5 mM D-glucose; 5 mM HEPES; pH 7.4) was used to wash and incubate cells where sodium dependent transport was measured, while N-methyl-D-glucamine (NMDG) and potassium salts substituted sodium in NMDG mHBSS to measure sodium independent uptake. For the assay, cells were seeded in 35 mm dishes and, once confluent, were washed thrice with warm mHBSS solution and incubated with mHBSS containing an 100 µM amino acid at a final specific activity of ≥2000 cpm/nmol (U-[^14C]amino acids were from PerkinElmer). After 6 min, cells were washed thrice with ice-cold mHBSS, lysed with 500 µl of 0.1 M HCl, detached with a cell scraper and triturated. A 400 µl aliquot was used for scintillation counting, while the remainder was saved for protein mass quantification by Bradford assay. Transport rates were normalised to the protein content of the culture dish.

[2] = test system: SNAT1 and SNAT2; assay: High-throughput compound screen, FMP assay in 384-well format (primary, confirmatory, control compounds)
Protocol: For the high-throughput compound screen, the FMP assay was adapted into a 384-well format within the ANU Centre for Therapeutic Discovery. […] Compounds Australia stores compounds under robust environmental conditions and supplies them in assay ready plate format. We screened 33,934 compounds from the Collection Scaffold Library. Cells (10,000/well) were seeded into Corning 384-well black walled plates (CLS3985; Sigma-Aldrich) using a Multidrop Combi liquid dispensing robot (Thermo Fisher) in a 40 µl volume. Once seeded, cells were allowed to grow in a microplate incubator (Liconic) for 24 h at 37°C (humidified atmosphere with 95% air and 5% CO2). Subsequently, plates were washed thrice with 50 µL of mHBSS using a 405 TS washer (BioTek). Then, 50 µl of starvation medium was added and cells were incubated again for 24 h.
Assay-ready compound plates (384 well plates containing compound or DMSO controls) were then prepared prior to addition to cells. In addition to the supplied compounds, 5 µl γ-glutamyl-hydroxamate (GHX, 60 mM dissolved in mHBSS, serving as an inhibitor control) was added into inhibitor control wells using a JANUS G3 robot (PerkinElmer). Subsequently, 25 uL of mHBSS was dispensed into all wells of the 384 well plate using a Multidrop Combi. All samples were then mixed using the JANUS G3 robot and 15 µl dispensed on top of the cell monolayer to reach a final concentration of 10.05 µM.
The FMP dye was solved freshly with mHBSS, 20 µl of which was deposited into each well using the Multidrop Combi, and the cells were incubated at room temperatur for 30 min. Each plate was then placed in an EnVision microplate reader (PerkinElmer) and a single baseline measurement was taken for each well (bottom reads excitation at 531, emission at 579 nm). The plate was then transferred to the Multidrop Combi and 10 µl/well of 5 mM glutamine was dispensed into each well. After linearly shaking for 5 s, microplates were returned to the EnVision microplate reader for a single post-injection measurement per well. The change of fluorescence was measured after 60 s.
Z′ scores were calculated from the controls onboard each of the 384-well plates assayed in the primary and secondary screen as described by Zhang et al., ([Zhang et al., 1999]). For the control inhibitor γ-glutamyl-hydroxamate (GHX) a Z’ score of 0.717 was determined, which was a sufficient signal for a HTS.

[3] = test system: SNAT1 and SNAT2; assay: FMP assay: inhibition of glutamine-induced membrane depolarisation in amino acid depleted HCC1806 cells
Protocol: The FLIPR Membrane Potential Blue Explorer Kit (Molecular Devices) was used to characterise inhibitors and to optimise a high-throughput compound screen. Cells were seeded at approximately 60,000 cells/well on a 96-well plate and allowed to attach and grow overnight in a cell incubator. […] Cells were then washed once with mHBSS and incubated with 50 µl of the mHBSS-resuspended FMP assay dye and 50 µl of mHBSS (with or without inhibitors) and incubated at room temperature for 30 min. The plate was then placed in an EnSpire Multimode plate reader (PerkinElmer) and four sequential measurements of fluorescence were recorded as a baseline reference. Immediately after the baseline measurements were taken, 25 µl of 5 mM glutamine dissolved in mHBSS was injected into each well and the plate was shaken orbitally for 5 s before a series of consecutive fluorescence measurements were taken. The excitation wavelength was set to 530 nm and the emission was detected at 565 nm. The Δ fluorescent signal reported in the figures was taken 30 s after substrate addition. After the assay was complete, the liquid content of the plate was carefully removed, and the cell monolayer inspected to ensure it remained intact throughout the course of the assay.
IC50 were calculated using equation y=ymax(1−x/x+IC50)

[4] = HCC1806, second column group headed UNINDUCED (c11-c19), t=-30 s, glutamine introduced at t=0, replicates 1-3
[5] = HCC1806 UNINDUCED (c1-c9), t=0 s
[6] = HCC1806 UNINDUCED (c1-c9), t=15 s
[7] = HCC1806 UNINDUCED (c1-c9), t=30 s
[8] = HCC1806 UNINDUCED (c1-c9), t=45 s
[9] = HCC1806 UNINDUCED (c1-c9), t=60 s
[10] = HCC1806 UNINDUCED (c1-c9), t=75 s
[11] = HCC1806 UNINDUCED (c1-c9), t=90 s
[12] = HCC1806 UNINDUCED (c1-c9), t=105 s
[13] = HCC1806 UNINDUCED (c1-c9), t=120 s
[14] = HCC1806 UNINDUCED (c1-c9), t=135 s
[15] = HCC1806 UNINDUCED (c1-c9), t=-15 s
[16] = HCC1806 UNINDUCED (c1-c9), t=-30 s, glutamine introduced at t=0, replicates 1-3
[17] = second group headed UNINDUCED (c11-c19), t=0 s
[18] = second group headed UNINDUCED (c11-c19), t=15 s
[19] = second group headed UNINDUCED (c11-c19), t=30 s
[20] = second group headed UNINDUCED (c11-c19), t=45 s
[21] = second group headed UNINDUCED (c11-c19), t=60 s
[22] = second group headed UNINDUCED (c11-c19), t=75 s
[23] = second group headed UNINDUCED (c11-c19), t=90 s
[24] = second group headed UNINDUCED (c11-c19), t=105 s
[25] = second group headed UNINDUCED (c11-c19), t=120 s
[26] = second group headed UNINDUCED (c11-c19), t=135 s
[27] = second group headed UNINDUCED (c11-c19), t=-15 s

C[N+](C)(C)CC(=O)O [Betaine, betaine]
inhibition of [14C]alanine uptake [1]: about 10%

N[C@@H](CCC(=O)NO)C(=O)O [GHX, L-glutamic acid γ-monohydroxamate]
reduction of FMP signal ([2]; 6 mM, 1 mM glutamine): 92% | Mean (delta) fluorescence signal (%) ([3]; GHX concentration 0.005): 92.4453% | Mean (delta) fluorescence signal (%) ([3]; GHX concentration 0.05): 88.1978% | Mean (delta) fluorescence signal (%) ([3]; GHX concentration 0.1): 81.9185% | Mean (delta) fluorescence signal (%) ([3]; GHX concentration 0.2): 62.0593% | Mean (delta) fluorescence signal (%) ([3]; GHX concentration 0.5): 45.7050% | Mean (delta) fluorescence signal (%) ([3]; GHX concentration 1): 28.4974% | Mean (delta) fluorescence signal (%) ([3]; GHX concentration 3): 5.9801% | FMP fluorescence reading [3, 4]: 80140 and 84104 and 92453 | FMP fluorescence reading [3, 5]: 95009 and 106958 and 105072 | FMP fluorescence reading [3, 6]: 92832 and 105585 and 105488 | FMP fluorescence reading [3, 7]: 92285 and 105041 and 105362 | FMP fluorescence reading [3, 8]: 92217 and 104713 and 105477 | FMP fluorescence reading [3, 9]: 92501 and 104852 and 105149 | FMP fluorescence reading [3, 10]: 92072 and 104235 and 104746 | FMP fluorescence reading [3, 11]: 91505 and 104029 and 104931 | FMP fluorescence reading [3, 12]: 91498 and 103606 and 105160 | FMP fluorescence reading [3, 13]: 91509 and 103340 and 104992 | FMP fluorescence reading [3, 14]: 91754 and 103170 and 104515 | FMP fluorescence reading [3, 15]: 94947 and 106966 and 104913 | FMP fluorescence reading [3, 16]: 94749 and 106497 and 104978 | IC50 ([3]; glutamine induced depolarisation, HCC1806 AA- (24h), n = 3): 330 ± 160 µM | FMP fluorescence reading [3, 17]: 79859 and 84357 and 91947 | FMP fluorescence reading [3, 18]: 80630 and 83515 and 91899 | FMP fluorescence reading [3, 19]: 79854 and 83032 and 91748 | FMP fluorescence reading [3, 20]: 79700 and 82661 and 90895 | FMP fluorescence reading [3, 21]: 79052 and 82273 and 90365 | FMP fluorescence reading [3, 22]: 78466 and 81641 and 89825 | FMP fluorescence reading [3, 23]: 78374 and 80769 and 89707 | FMP fluorescence reading [3, 24]: 77755 and 80422 and 88694 | FMP fluorescence reading [3, 25]: 77065 and 79988 and 88225 | FMP fluorescence reading [3, 26]: 76289 and 79358 and 87841 | FMP fluorescence reading [3, 27]: 80373 and 84318 and 91914

Cc1ccc(S(=O)(=O)N(C)c2ccsc2C(=O)NCc2ccccc2C(F)(F)F)cc1 [Compound 57_E, 3-(N-methyl (4-methylphenyl)sulfonamido)-N-(2-trifluoromethylbenzyl)thiophene-2-carboxamide]
% (delta) Fluorescence Signal ([2]; Figure 3A, ranked hits of the high-throughput screen, FMP assay): 58.6322% | inhibition of [14C]alanine uptake [1]: about 10%

NC(=O)CC[C@H](N)C(=O)O [Glutamine, glutamine]
FMP fluorescence reading [3, 4]: 48604 and 53579 and 57451 | FMP fluorescence reading [3, 5]: 80152 and 93008 and 95175 | FMP fluorescence reading [3, 6]: 81192 and 94874 and 97430 | FMP fluorescence reading [3, 7]: 81634 and 95549 and 97622 | FMP fluorescence reading [3, 8]: 82112 and 96387 and 97827 | FMP fluorescence reading [3, 9]: 82774 and 96256 and 98257 | FMP fluorescence reading [3, 10]: 83212 and 96832 and 98303 | FMP fluorescence reading [3, 11]: 83103 and 97466 and 98281 | FMP fluorescence reading [3, 12]: 83167 and 97358 and 97714 | FMP fluorescence reading [3, 13]: 83214 and 97405 and 97828 | FMP fluorescence reading [3, 14]: 83426 and 97359 and 98137 | FMP fluorescence reading [3, 15]: 80647 and 93663 and 95145 | FMP fluorescence reading [3, 16]: 79899 and 92924 and 94884 | FMP fluorescence reading [3, 17]: 48277 and 53613 and 57279 | FMP fluorescence reading [3, 18]: 87410 and 95992 and 106048 | FMP fluorescence reading [3, 19]: 92514 and 100953 and 110310 | FMP fluorescence reading [3, 20]: 96611 and 104700 and 113605 | FMP fluorescence reading [3, 21]: 98488 and 108054 and 116646 | FMP fluorescence reading [3, 22]: 100460 and 110105 and 118023 | FMP fluorescence reading [3, 23]: 101322 and 111642 and 119920 | FMP fluorescence reading [3, 24]: 102745 and 112818 and 120694 | FMP fluorescence reading [3, 25]: 102428 and 112661 and 120909 | FMP fluorescence reading [3, 26]: 102525 and 112308 and 120142 | FMP fluorescence reading [3, 27]: 48090 and 53580 and 57674

From article PMC9532951, “Identification and characterization of a novel SNAT2 (SLC38A2) inhibitor reveals synergy with glucose transport inhibition in cancer cells” (Frontiers in Pharmacology, 2022)
